{"source": "patent US5328909A", "about": "“Cyclopropenone derivatives” (Mitsubishi Kasei Corporation, priority 1991, dated 1994)", "origin": "cited, not measured here", "key": {"[1]": {"system": "microtubule-associated protein", "conditions": "after the brain ischemia; cited from earlier work"}, "[2]": {"system": "cardiac infarction animal models", "conditions": "cited from earlier work"}, "[3]": {"system": "brain trauma models of rat", "conditions": "cited from earlier work"}}}
{"smiles": "CC(C)CCNC(=O)[C@H](CC(C)C)NC(=O)[C@H]1O[C@@H]1C(=O)O", "note": "[E-64-C]", "values": [{"measurement": "degradation of microtubule-associated protein", "setting": "[1]", "value": "inhibits the degradation of microtubule-associated protein"}]}
{"smiles": "CCOC(=O)[C@@H]1O[C@H]1C(=O)NC(CC(C)C)C(=O)N1CCN(Cc2ccc(OC)c(OC)c2OC)CC1.CCOC(=O)[C@@H]1O[C@H]1C(=O)NC(CC(C)C)C(=O)N1CCN(Cc2ccc(OC)c(OC)c2OC)CC1.O=S(=O)(O)O", "note": "(stereo partly drawn) [NCO-700]", "values": [{"measurement": "effect on cardiac infarction", "setting": "[2]", "value": "effective on cardiac infarction"}]}
{"smiles": "CC(=O)N[C@@H](CC(C)C)C(=O)N[C@@H](CC(C)C)C(=O)N[C@H](C=O)CCCNC(=N)N", "note": "[leupetin]", "values": [{"measurement": "axon protection", "setting": "[3]", "value": "can protect axon"}]}
